In patent US7119072B2, “Macrocyclic peptides active against the hepatitis C virus” (Boehringer Ingelheim (Canada) Ltd., priority 2002, dated 2006):

Test: In vivo oral absorption screen / pharmacokinetic assay in the rat
Conditions: male, Sprague Dawley, rat plasma, dose of 5 mg/kg in Methocel:Tween20 (0.5%:0.3%), read-out: area under the curve (AUC)
Source text: More explicitly, the following assay, an in vivo oral absorption screen, was used to determine plasma levels of test compounds in a rat after oral administration: The selection of compounds to be pooled into a “cassette” was based on their structural similarity and physicochemical properties. A solid phase extraction method applicable to all the selected compounds was established. Based on the initial testing where each compound was spiked into rat plasma and run through HPLC or HPLC/MS at a concentration of 0.5 μM, the retention time, ionic mass, and the possible separation among compounds by HPLC and/or HPLC/MS were used as basis for pooling 3–4 compounds into one “cassette”. Each “cassette” contains 3–4 compounds at 5 or 4 mg/kg for each compound. The cassettes were prepared as an oral suspension in 0.5% aqueous methylcellulose and 0.3% of polyoxyethylene (20) sorbiton monooleate (Tween-80). The dosing volume was 10 ml/kg via oral gavage. Male Sprague Dawley rats were fasted overnight in individual cages, with access to aqueous 10% dextrose. Two rats were dosed with each “cassette”. Plasma samples (˜1 ml) were collected at 1 and 2 h post-dosing from the 2 rats and pooled for extraction and analysis. […] Samples were analyzed by HPLC and HPLC/MS for comparison purpose. […]

AUC [µM·h] | SMILES
18 | COc1ccc2c(O[C@@H]3C[C@H]4C(=O)N[C@]5(C(=O)O)C[C@H]5/C=C\CCCCC[C@H](NC(=O)OC5CCCC5)C(=O)N4C3)cc(-c3csc(NC4CCCCC4)n3)nc2c1 [Compound 102]
16 | COc1ccc2c(O[C@@H]3C[C@H]4C(=O)N[C@]5(C(=O)O)C[C@H]5/C=C\CCCCC[C@H](NC(=O)OC5CCCC5)C(=O)N4C3)cc(-c3csc(NC4CCCC4)n3)nc2c1 [Compound 101]
